According to PMC2287205 (Analytical and Bioanalytical Chemistry, 2008):

How the values were obtained:
[1] = Microsomal incubation with PB-induced rat liver microsomes; details: 100 μM zearalenone, 120 min, 37 °C
ERα = ERα (Homo sapiens, UniProt P03372); format: binding; details: mixture of five estrogenic compounds separated by gradient HPLC (Fig. 7)
Sequence of ERα (P03372 311-547): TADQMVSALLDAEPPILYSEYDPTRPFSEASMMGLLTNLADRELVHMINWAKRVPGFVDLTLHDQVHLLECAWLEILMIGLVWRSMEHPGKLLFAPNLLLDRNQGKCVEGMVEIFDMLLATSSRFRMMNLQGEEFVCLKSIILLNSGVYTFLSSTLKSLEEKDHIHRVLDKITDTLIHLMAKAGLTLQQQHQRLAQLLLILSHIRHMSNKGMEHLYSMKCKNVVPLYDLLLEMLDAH

Structure (SMILES) | Metabolism by rat liver microsomes [1] | ERα bioaffinity detected in HRS ERα FP trace (ERα)
C[C@H]1CCCC(=O)CCC/C=C/c2cc(O)cc(O)c2C(=O)O1 [zearalenone] | metabolized by rat liver microsomes into at least three major metabolites | possible to detect the ERα bioaffinities
O=c1oc2cc(O)ccc2cc1-c1ccc(O)cc1 [coumarol, 7-Hydroxy-3-p-hydroxyphenylcoumarine] |  | possible to detect the ERα bioaffinities
